Experimental data: US20220331237A1, “DEVICE, METHODS AND USES FOR TREATING ANAPHYLAXIS” (1232176 B.C. Ltd., priority 2021, published 2022)
Read-outs that look alike come from different tables or passages of the source.

Legend:
[1] = Commercial actuator, previously reported, cited from earlier work
[2] = Protocol: Briefly, a Next Generation Impactor (Model 170 NGI; Copley) was used to capture dose exiting a regular non-sectioned AIT (used here to minimize assay steps) at an inhalation flowrate of 30 L/min. Interior surfaces of the AIT and the impaction plates within the NGI were coated with silicone grease (Molykote 316; Dow Corning) prior to testing. […] Following actuation, the AIT was washed twice with 10 mL of 0.1 N HCl, while each plate of the NGI was washed once with 5 mL of 0.1 N HCl. Samples were assayed via UV spectroscopy at the absorbance maximum of 279 nm, as discussed above.
Tests were performed using the 0.22 mm actuator orifice with Primatene Mist HFA. Both transverse and coaxial insertion angles were used, with three repeated measures taken at each orientation. Particle size distributions were characterized via calculation of the mass median aerodynamic diameter (MMAD) and geometric standard deviation (GSD) via linear interpolation (e.g., Hinds W C. 2nd ed. Hoboken, N.J.: Wiley; 1999). A validated regional lung deposition model (e.g., Javaheri et al., J Aerosol Sci. 2013, 64:81-93 and Finlay et al., Lung Delivery of Aerosolized Dextran. 2000, 161:91-7) was used to estimate tracheobronchial and alveolar deposition from the measured particle size distributions under a simulated breath with an inhaled volume of 3.0 L, inhalation flowrate of 30 L/min, a pause between inhalation of (i) 0 or (ii) 10 seconds, and exhalation flowrate of 30 L/min.

[3] = test system: grade 2 or higher acute allergic reaction
Text: Institutional Review Board approval was obtained for the study and informed consent was obtained from study participants.

[4] = 0.22 mm actuator orifice, unaffected by insertion angle
[5] = 0.22 mm actuator, Coaxial, 30 L/min
[6] = 0.22 mm actuator, Transverse, 30 L/min

Which “Deposition, NGI Stage 1” value ([1]; Coaxial) does the source give for `CNCC(O)c1ccc(O)c(O)c1` (stereo not drawn) [epinephrine, 4-(1-hydroxy-2-(methylamino)ethyl)benzene-1,2-diol] here?
The value was 2.1 µg.

What about the “Deposition, NGI Stage 2” value ([1]; Coaxial) of the same compound?
The value was 2.5 µg.

And the “Deposition, NGI Stage 3” value ([1]; Coaxial)?
Its value is 11.1 µg.

And the “Deposition, NGI Stage 4” value ([1]; Coaxial)?
Its value is 72.9 µg.

And the “Deposition, NGI Stage 5” value ([1]; Coaxial)?
Its value is 99.1 µg.

And the “Deposition, NGI Stage 6” value ([1]; Coaxial)?
Its value is 34.1 µg.

What about the “Deposition, NGI Stage 7” value ([1]; Coaxial) of the same compound?
The value was 6.3 µg.

What about the “Deposition, NGI Stage 8” value ([1]; Coaxial) of the same compound?
The value was 0.0 µg.

What about the “Deposition, Throat” value ([1]; Coaxial) of the same compound?
Its value is 136.3 µg.

What about the “Deposition, Total Recovered” value ([1]; Coaxial) of the same compound?
The value was 364.3 µg.

What about the “Deposition, NGI Stage 1” value ([1]; Transverse) of the same compound?
The value was 0.8 µg.

What about the “Deposition, NGI Stage 2” value ([1]; Transverse) of the same compound?
Its value is 1.1 µg.

And the “Deposition, NGI Stage 3” value ([1]; Transverse)?
The value was 6.8 µg.

What about the “Deposition, NGI Stage 4” value ([1]; Transverse) of the same compound?
Its value is 56.0 µg.

What about the “Deposition, NGI Stage 5” value ([1]; Transverse) of the same compound?
Its value is 96.8 µg.

And the “Deposition, NGI Stage 6” value ([1]; Transverse)?
Its value is 37.7 µg.

And the “Deposition, NGI Stage 7” value ([1]; Transverse)?
The value was 6.6 µg.

What about the “Deposition, NGI Stage 8” value ([1]; Transverse) of the same compound?
The value was 0.0 µg.

And the “Deposition, Throat” value ([1]; Transverse)?
The value was 212.9 µg.

What about the “Deposition, Total Recovered” value ([1]; Transverse) of the same compound?
The value was 418.8 µg.

And the GSD [2, 4]?
The GSD was about 1.63.

What about the MMAD [2, 4] of the same compound?
The MMAD was “approximately 2 μm”.

What about the “Deposition, NGI Stage 1” value [2, 5] of the same compound?
The value was 1.9 µg.

What about the “Deposition, NGI Stage 2” value [2, 5] of the same compound?
The value was 1.9 µg.

What about the “Deposition, NGI Stage 3” value [2, 5] of the same compound?
Its value is 8.5 µg.

And the “Deposition, NGI Stage 4” value [2, 5]?
Its value is 82.6 µg.

And the “Deposition, NGI Stage 5” value [2, 5]?
Its value is 122.2 µg.

What about the “Deposition, NGI Stage 6” value [2, 5] of the same compound?
The value was 42.0 µg.

What about the “Deposition, NGI Stage 7” value [2, 5] of the same compound?
The value was 7.6 µg.

What about the “Deposition, NGI Stage 8” value [2, 5] of the same compound?
Its value is 0.0 µg.

And the “Deposition, Throat” value [2, 5]?
The value was 78.6 µg.

And the “Deposition, Total Recovered” value [2, 5]?
Its value is 345.2 µg.

And the “MMAD (mass median aerodynamic diameter)” value [2, 5]?
Its value is 2.00 μm.

And the “Deposition, NGI Stage 1” value [2, 6]?
Its value is 1.5 µg.

And the “Deposition, NGI Stage 2” value [2, 6]?
Its value is 1.4 µg.

And the “Deposition, NGI Stage 3” value [2, 6]?
Its value is 8.8 µg.

What about the “Deposition, NGI Stage 4” value [2, 6] of the same compound?
Its value is 80.8 µg.

And the “Deposition, NGI Stage 5” value [2, 6]?
Its value is 121.7 µg.

What about the “Deposition, NGI Stage 6” value [2, 6] of the same compound?
Its value is 43.6 µg.

What about the “Deposition, NGI Stage 7” value [2, 6] of the same compound?
Its value is 9.5 µg.

And the “Deposition, NGI Stage 8” value [2, 6]?
Its value is 0.0 µg.

What about the “Deposition, Throat” value [2, 6] of the same compound?
Its value is 95.8 µg.

And the “Deposition, Total Recovered” value [2, 6]?
Its value is 363.0 µg.

What about the “MMAD (mass median aerodynamic diameter)” value [2, 6] of the same compound?
The value was 1.98 μm.

And the “MMAD (mass median aerodynamic diameter)” value ([2]; Commercial actuator, Coaxial, calculated here from previously reported deposition)?
The value was 2.05 μm.

And the “MMAD (mass median aerodynamic diameter)” value ([2]; Commercial actuator, Transverse, calculated here from previously reported deposition)?
Its value is 1.93 μm.

What about the Tachycardia ([3]; Patient 1, 4 puffs given) of the same compound?
Its Tachycardia is “Yes”.

What about the “Time to Resolution of Allergic Reaction After Treatment Initiated” value ([3]; Patient 1, 4 puffs given) of the same compound?
Its value is 3 min.

What about the Tremors ([3]; Patient 1, 4 puffs given) of the same compound?
The Tremors was “Yes”.

What about the Tachycardia ([3]; Patient 2, 4 puffs given) of the same compound?
Its Tachycardia is “Yes”.

What about the “Time to Resolution of Allergic Reaction After Treatment Initiated” value ([3]; Patient 2, 4 puffs given) of the same compound?
The value was “within 2 mins”.

And the Tremors ([3]; Patient 2, 4 puffs given)?
Its Tremors is “Yes”.

What about the Tachycardia ([3]; Patient 3, 4 puffs given) of the same compound?
The Tachycardia was “Yes”.

And the “Time to Resolution of Allergic Reaction After Treatment Initiated” value ([3]; Patient 3, 4 puffs given)?
The value was 0.5 min.

What about the Tremors ([3]; Patient 3, 4 puffs given) of the same compound?
The Tremors was “Yes”.

What about the Tachycardia ([3]; Patient 4, 2 puffs given) of the same compound?
Its Tachycardia is “Yes”.

What about the “Time to Resolution of Allergic Reaction After Treatment Initiated” value ([3]; Patient 4, 2 puffs given) of the same compound?
The value was 1 min.

And the Tremors ([3]; Patient 4, 2 puffs given)?
Its Tremors is “Yes”.

What about the Tachycardia ([3]; Patient 5, 6 puffs given) of the same compound?
The Tachycardia was “Yes”.

And the “Time to Resolution of Allergic Reaction After Treatment Initiated” value ([3]; Patient 5, 6 puffs given)?
The value was 6 min.

And the Tremors ([3]; Patient 5, 6 puffs given)?
Its Tremors is “Yes”.

And the Tachycardia ([3]; Patient 6, 9 puffs given)?
Its Tachycardia is “Yes”.

What about the Tremors ([3]; Patient 6, 9 puffs given) of the same compound?
Its Tremors is “Yes”.

And the “Time to Resolution of Allergic Reaction After Treatment Initiated” value ([3]; Patient 6, 9 puffs given, entry runs on: resolved after 5 puffs, but recurred after 5 mins)?
Its value is “resolved after 5”.

What about the “Time to recurrence of allergic reaction after resolution” value ([3]; Patient 6, 9 puffs given, resolved after 5 puffs) of the same compound?
The value was “after 5 mins”.

And the Tachycardia ([3]; Patient 7, 2 puffs given)?
Its Tachycardia is “Yes”.

And the “Time to Resolution of Allergic Reaction After Treatment Initiated” value ([3]; Patient 7, 2 puffs given)?
Its value is 2 min.

And the Tremors ([3]; Patient 7, 2 puffs given)?
Its Tremors is “Yes”.

What about the Tachycardia ([3]; Patient 8, 2 puffs given) of the same compound?
The Tachycardia was “Yes”.

What about the “Time to Resolution of Allergic Reaction After Treatment Initiated” value ([3]; Patient 8, 2 puffs given) of the same compound?
The value was 1 min.

What about the Tremors ([3]; Patient 8, 2 puffs given) of the same compound?
The Tremors was “Yes”.

What about the Tachycardia ([3]; Patient 9, 2 puffs given) of the same compound?
Its Tachycardia is “Yes”.

What about the “Time to Resolution of Allergic Reaction After Treatment Initiated” value ([3]; Patient 9, 2 puffs given) of the same compound?
The value was 1 min.

What about the Tremors ([3]; Patient 9, 2 puffs given) of the same compound?
The Tremors was “Yes”.

What about the Tachycardia ([3]; Patient 10, 5 puffs given) of the same compound?
Its Tachycardia is “Yes”.

And the “Time to Resolution of Allergic Reaction After Treatment Initiated” value ([3]; Patient 10, 5 puffs given)?
Its value is 1 min.

What about the Tremors ([3]; Patient 10, 5 puffs given) of the same compound?
Its Tremors is “Yes”.

What about the Tachycardia ([3]; Patient 11, 2 puffs given) of the same compound?
The Tachycardia was “Yes”.

And the Tremors ([3]; Patient 11, 2 puffs given)?
Its Tremors is “Yes”.

What about the Tachycardia ([3]; Patient 12, 2 puffs given) of the same compound?
Its Tachycardia is “Yes”.

What about the “Time to Resolution of Allergic Reaction After Treatment Initiated” value ([3]; Patient 12, 2 puffs given) of the same compound?
Its value is 1 min.

And the Tremors ([3]; Patient 12, 2 puffs given)?
Its Tremors is “Yes”.

What about the Tachycardia ([3]; Patient 13, 2 puffs given) of the same compound?
Its Tachycardia is “Yes”.

What about the “Time to Resolution of Allergic Reaction After Treatment Initiated” value ([3]; Patient 13, 2 puffs given) of the same compound?
Its value is 1 min.

What about the Tremors ([3]; Patient 13, 2 puffs given) of the same compound?
Its Tremors is “Yes”.

What about the Tachycardia ([3]; Patient 14, 2 puffs given) of the same compound?
Its Tachycardia is “Yes”.

What about the “Time to Resolution of Allergic Reaction After Treatment Initiated” value ([3]; Patient 14, 2 puffs given) of the same compound?
Its value is 1 min.

What about the Tremors ([3]; Patient 14, 2 puffs given) of the same compound?
The Tremors was “Yes”.

What about the Tachycardia ([3]; Patient 15, 6 puffs given) of the same compound?
The Tachycardia was “Yes”.

And the “Time to Resolution of Allergic Reaction After Treatment Initiated” value ([3]; Patient 15, 6 puffs given)?
The value was 4 min.

And the Tremors ([3]; Patient 15, 6 puffs given)?
Its Tremors is “Yes”.

And the Tachycardia ([3]; Patient 16, 4 puffs given)?
The Tachycardia was “Yes”.

What about the “Time to Resolution of Allergic Reaction After Treatment Initiated” value ([3]; Patient 16, 4 puffs given) of the same compound?
Its value is 1.5 min.

What about the Tremors ([3]; Patient 16, 4 puffs given) of the same compound?
Its Tremors is “Yes”.

And the Tachycardia ([3]; Patient 17, 3 puffs given)?
The Tachycardia was “Yes”.

And the “Time to Resolution of Allergic Reaction After Treatment Initiated” value ([3]; Patient 17, 3 puffs given)?
Its value is 1.5 min.

And the Tremors ([3]; Patient 17, 3 puffs given)?
Its Tremors is “Yes”.

What about the Tachycardia ([3]; Patient 18, 2 puffs given) of the same compound?
Its Tachycardia is “Yes”.

And the “Time to Resolution of Allergic Reaction After Treatment Initiated” value ([3]; Patient 18, 2 puffs given)?
Its value is “within 30 secs”.

What about the Tremors ([3]; Patient 18, 2 puffs given) of the same compound?
The Tremors was “Yes”.

And the Tachycardia ([3]; Patient 19, 4 + 2 puffs given)?
The Tachycardia was “Yes”.

And the “Time to recurrence of allergic reaction after resolution” value ([3]; Patient 19, 4 + 2 puffs given)?
Its value is “after 10 mins, then”.

And the Tremors ([3]; Patient 19, 4 + 2 puffs given)?
The Tremors was “Yes”.

What about the “Time to resolution of the recurred allergic reaction” value ([3]; Patient 19, 4 + 2 puffs given, after recurrence) of the same compound?
Its value is “resolved in 1 min”.

And the “Time to Resolution of Allergic Reaction After Treatment Initiated” value ([3]; Patient 19, 4 + 2 puffs given, initial resolution)?
The value was 1 minute, recurred.

And the “Need for treatment with intramuscular epinephrine” value ([3]; all study participants)?
Its value is “No study participants required treatment with intramuscular epinephrine”.

And the “Resolution of clinical symptoms (laryngopharyngeal and systemic)” value ([3]; all study participants, Primatene Mist HFA via Bespak BK633 actuator (0.22 mm))?
The value was “prompt resolution of clinical symptoms”.

What about the “Recurrence of symptoms after initial resolution” value ([3]; all study participants, further doses of oral inhaled epinephrine given) of the same compound?
Its value is “In two instances symptoms recurred after initial resolution and again resolved promptly”.
